Test results from the supplement of paper PMC10307832.

Key:
Experiment in all cases: relative viability (nuclei count vs DMSO), 5 days (fraction); higher = more cells survive
Bexarotene + OSI-027 = compound: C=C(c1ccc(C(=O)O)cc1)c1cc2c(cc1C)C(C)(C)CCC2(C)C [Bexarotene] + COc1cccc2cc(-c3nc([C@H]4CC[C@H](C(=O)O)CC4)n4ncnc(N)c34)[nH]c12 [OSI-027] (partner 0.5 µM)
Summary of the method: (§1)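 Lung cancer cell lines were pin-tool dosed in 1536-well plates on the day after seeding, with either a lone drug or a fixed anchor-drug dose plus five library-drug doses (not always all listed) in √10 steps. Nuclei were counted on 4× images after 5 days. Relative viability is the ratio of treated-well to vehicle-well nuclei counts, with each value a median of duplicate plates.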

Bexarotene + Lapatinib = compound: C=C(c1ccc(C(=O)O)cc1)c1cc2c(cc1C)C(C)(C)CCC2(C)C [Bexarotene] + CS(=O)(=O)CCNCc1ccc(-c2ccc3ncnc(Nc4ccc(OCc5cccc(F)c5)c(Cl)c4)c3c2)o1 [Lapatinib] (partner 2 µM)
Summary of the method: as §1

Bexarotene + Linsitinib = compound: C=C(c1ccc(C(=O)O)cc1)c1cc2c(cc1C)C(C)(C)CCC2(C)C [Bexarotene] + C[C@]1(O)C[C@@H](c2nc(-c3ccc4ccc(-c5ccccc5)nc4c3)c3c(N)nccn32)C1 [Linsitinib] (partner 1 µM)
Summary of the method: as §1

Bexarotene + Alpelisib = compound: C=C(c1ccc(C(=O)O)cc1)c1cc2c(cc1C)C(C)(C)CCC2(C)C [Bexarotene] + Cc1nc(NC(=O)N2CCC[C@H]2C(N)=O)sc1-c1ccnc(C(C)(C)C(F)(F)F)c1 [Alpelisib] (partner 2 µM)
Summary of the method: as §1

Row | Cell Line | relative viability (Bexarotene + OSI-027; first compound 0.08 µM) | relative viability (Bexarotene + OSI-027; first compound 0.253 µM) | relative viability (Bexarotene + OSI-027; first compound 0.8 µM) | relative viability (Bexarotene + OSI-027; first compound 2.53 µM) | relative viability (Bexarotene + OSI-027; first compound 8 µM) | relative viability (Bexarotene + Lapatinib; first compound 0.08 µM) | relative viability (Bexarotene + Lapatinib; first compound 0.253 µM) | relative viability (Bexarotene + Lapatinib; first compound 0.8 µM) | relative viability (Bexarotene + Lapatinib; first compound 2.53 µM) | relative viability (Bexarotene + Lapatinib; first compound 8 µM) | relative viability (Bexarotene + Linsitinib; first compound 0.08 µM) | relative viability (Bexarotene + Linsitinib; first compound 0.253 µM) | relative viability (Bexarotene + Linsitinib; first compound 0.8 µM) | relative viability (Bexarotene + Linsitinib; first compound 2.53 µM) | relative viability (Bexarotene + Linsitinib; first compound 8 µM) | relative viability (Bexarotene + Alpelisib; first compound 0.08 µM) | relative viability (Bexarotene + Alpelisib; first compound 0.253 µM) | relative viability (Bexarotene + Alpelisib; first compound 0.8 µM) | relative viability (Bexarotene + Alpelisib; first compound 2.53 µM) | relative viability (Bexarotene + Alpelisib; first compound 8 µM)
1 | NCI-H1666 | 0.774 | 0.759 | 0.566 | 0.747 | 0.593 | 0.753 | 0.588 | 0.446 | 0.512 | 0.504 | 0.889 | 0.783 | 0.844 | 0.931 | 0.661 | 1 | 0.877 | 0.862 | 0.897 | 0.761
2 | NCI-H1734 | 0.616 | 0.64 | 0.591 | 0.493 | 0.543 | 1.02 | 1.04 | 1.07 | 0.942 | 0.944 | 0.906 | 0.857 | 0.81 | 0.794 | 0.806 | 0.718 | 0.708 | 0.652 | 0.637 | 0.633
3 | NCI-H1755 | 0.777 | 0.741 | 0.675 | 0.637 | 0.611 | 1.07 | 1.29 | 1.1 | 0.994 | 1.02 | 1.05 | 1.1 | 1.08 | 0.992 | 1.02 | 0.917 | 1.05 | 0.94 | 0.876 | 0.917
4 | NCI-H1792 | 0.739 | 0.757 | 0.681 | 0.764 | 0.68 | 0.883 | 0.763 | 0.794 | 0.574 | 0.837 | 0.437 | 0.586 | 0.259 | 0.422 | 0.342 | 0.534 | 0.697 | 0.532 | 0.585 | 0.413
5 | NCI-H1793 | 0.339 | 0.319 | 0.313 | 0.203 | 0.311 | 0.647 | 0.68 | 0.647 | 0.568 | 0.519 | 1.08 | 0.959 | 1.03 | 0.914 | 0.897 | 0.956 | 0.81 | 0.81 | 0.727 | 0.824
6 | NCI-H1915 | 0.67 | 0.661 | 0.568 | 0.594 | 0.601 | 1.1 | 0.793 | 0.979 | 0.999 | 1.04 | 1.16 | 1.12 | 1.03 | 1.04 | 1.07 | 1.17 | 1.06 | 1.04 | 1 | 0.95
7 | NCI-H1944 | 0.616 | 0.495 | 0.48 | 0.476 | 0.451 | 1.17 | 0.934 | 0.961 | 0.929 | 0.768 | 1.5 | 1.36 | 1.4 | 1.41 | 1.19 | 1.08 | 1.05 | 0.913 | 0.954 | 0.867
8 | NCI-H1975 | 0.9 | 0.811 | 0.802 | 0.806 | 0.722 | 1.25 | 1.01 | 1 | 1.1 | 0.988 | 1.06 | 1.12 | 1.08 | 1.22 | 1.1 | 0.705 | 0.783 | 0.665 | 0.669 | 0.836
9 | NCI-H1993 | 0.588 | 0.498 | 0.564 | 0.54 | 0.564 | 0.858 | 0.826 | 0.809 | 0.802 | 0.814 | 0.718 | 0.665 | 0.608 | 0.656 | 0.774 | 0.657 | 0.645 | 0.689 | 0.735 | 0.684
10 | NCI-H2009 | 0.729 | 0.705 | 0.584 | 0.547 | 0.598 | 0.794 | 1.14 | 1.06 | 1.06 | 0.999 | 1.33 | 1.36 | 1.13 | 1.18 | 1.13 | 1.27 | 1.23 | 1.11 | 1.17 | 1.06
11 | NCI-H2023 | 0.384 | 0.391 | 0.439 | 0.311 | 0.378 | 1.03 | 1.14 | 0.979 | 0.63 | 0.595 | 0.785 | 0.911 | 0.735 | 0.683 | 0.625 | 0.622 | 0.618 | 0.615 | 0.548 | 0.57
12 | NCI-H2085 | 0.841 | 0.718 | 0.642 | 0.675 | 0.704 | 0.739 | 0.723 | 0.596 | 0.703 | 0.731 | 0.776 | 0.793 | 0.797 | 0.685 | 0.712 | 0.892 | 0.924 | 0.873 | 0.855 | 0.824
13 | NCI-H2087 | 0.643 | 0.693 | 0.663 | 0.565 | 0.448 | 1.06 | 1.16 | 1.2 | 0.98 | 0.883 | 1.01 | 0.963 | 0.89 | 0.896 | 0.827 | 1.27 | 1.11 | 1.08 | 0.997 | 1.05
14 | NCI-H2126 | 0.675 | 0.71 | 0.742 | 0.74 | 0.683 | 0.768 | 0.741 | 0.73 | 0.81 | 0.757 | 0.8 | 0.762 | 0.789 | 0.791 | 0.753 | 0.8 | 0.81 | 0.698 | 0.826 | 0.847
15 | NCI-H2228 | 0.848 | 0.639 | 0.359 | 0.568 | 0.477 | 1.55 | 0.935 | 0.763 | 1.17 | 0.909 | 0.905 | 0.818 | 0.586 | 0.656 | 0.749 | 0.669 | 0.722 | 0.609 | 0.629 | 0.499
16 | NCI-H2347 | 0.353 | 0.275 |  | 0.446 | 0.386 | 1.18 | 1.1 | 0.669 | 1.06 | 0.917 | 1.06 | 1.02 | 0.749 | 0.975 | 1.02 | 1.05 | 1.03 | 0.748 | 1.01 | 1.11
